According to ChEMBL document CHEMBL5154820 (Eur J Med Chem, 2022):
Values after ≈ are worked out from the molar mass of the structure shown.

Legend:
[1] = Antiproliferative activity against human SiHa/DDP cells assessed as reduction in cell growth measured after 48 to 72 hrs by CCK-8 assay; assay type: functional, cell-based, SiHa/cDDP
[2] = Aqueous solubility of compound at pH 2.0 in phosphate buffer incubated overnight by HPLC analysis; assay type: physicochemical
[3] = AUC(0 to infinity) in C57 nude mouse plasma at 30 mg/kg, ip measured at 0.083 to 24 hrs by LC/MS/MS analysis; assay type: ADME, organism-based; set-up: time lower 0.083 hrs, dose 30 mg/kg, time upper 24 hrs, route ip
HeLa [4] = assay: Induction of cell cycle arrest in human HeLa cells assessed as 4N cells at 0.2 uM measured after 24 hrs by propidium iodide staining based flow cytometric analysis analysis ( Rvb = 20.3%); assay type: functional
HeLa [5] = assay: Induction of cell cycle arrest in human HeLa cells assessed as S-phase at 0.4 uM measured after 24 hrs by propidium iodide staining based flow cytometric analysis analysis ( Rvb = 15.5%); assay type: functional
[6] = Antiproliferative activity against human HeLa/DDP cells assessed as reduction in cell growth measured after 48 to 72 hrs by CCK-8 assay; assay type: functional, cell-based
[7] = Aqueous solubility of compound at pH 7.4 in phosphate buffer incubated overnight by HPLC analysis; assay type: physicochemical
HeLa [8] = assay: Induction of apoptosis in human HeLa cells assessed as late apoptotic cells at 0.1 uM measured after 24 hrs by Annexin V-FITC/7-AAD staining based flow cytometric analysis (reference value: 8.51%); assay type: functional
[9] = Antiproliferation activity against human MS751 cells assessed as reduction in cell growth measured after 48 to 72 hrs by CCK-8 assay; assay type: functional, cell-based
HeLa [10] = assay: Inhibition of colony formation in human HeLa cells at 100 nM and treated for every 48 hrs with fresh medium measured after 14 days by crystal violet staining method; assay type: functional; set-up: scale not given: the % may be the effect or the level left; conditions: time 14 day
HeLa [11] = assay: Antiproliferative activity against human HeLa cells assessed as reduction in cell growth measured after 48 to 72 hrs by CCK-8 assay; assay type: functional, cell-based
[12] = Cytotoxicity against HK-2 cells assessed as reduction in cell growth measured after 24 hrs by microplate reader analysis; assay type: toxicity, cell-based; conditions: human
[13] = Nephrotoxicity in BABL/c mouse assessed as increased urea nitrogen level at 30 mg/kg, ip administered daily for 21 days followed by addition of 3 mg/kg DDP for every 2 days relative to vehicle; assay type: toxicity, organism-based; conditions: in vivo, 504 h, time 21 day
[14] = Nephrotoxicity in BABL/c mouse assessed as increased creatinine level at 30 mg/kg, ip administered daily for 21 days followed by addition of 3 mg/kg DDP for every 2 days relative to vehicle; assay type: toxicity, organism-based; conditions: in vivo, 504 h, time 21 day
Tubulin (Homo sapiens) = Tubulin (Homo sapiens) (UniProt P68371+Q9H4B7+P0DPH7+P68366+Q13509+Q71U36+P04350+Q3ZCM7+P07437+P68363+Q9BQE3+Q6PEY2+Q13885+Q9BVA1+Q9BUF5); assay: Induction of microtubule disruption in human HeLa cells assessed as loss of cellular structure at 0.1 to 0.2 uM measured after 24 hrs by DAPI staining based laser scanning confocal microscopic analysis; assay type: cell-based; conditions: dose 0.1-0.2 µM, DDE = dose-dependent effect
HeLa [15] = assay: Induction of cell cycle arrest in human HeLa cells assessed as accumulation of cells at G2/M phase at 0.1 uM after 24 hrs by propidium iodide staining based flow cytometric analysis (reference value: 20.3%); assay type: functional
SiHa [16] = assay: Antiproliferation activity against human SiHa cells assessed as reduction in cell growth measured after 48 to 72 hrs by CCK-8 assay; assay type: functional, cell-based
[17] = Toxicity against BABL/c mouse assessed as morphological changes in liver at 30 to 60 mg/kg, ip administered daily for 21 days by H and E staining method; assay type: organism-based; conditions: in vivo, 504 h, dose 30-60 mg/kg, time 21 day
HeLa [18] = assay: Induction of cell cycle arrest in human HeLa cells assessed as accumulation of cells at G2/M phase at 0.4 uM after 24 hrs by propidium iodide staining based flow cytometric analysis (reference value: 20.3%); assay type: functional
HeLa [19] = assay: Antiproliferation activity against human HeLa cells assessed as reduction in cell growth measured after 48 to 72 hrs by CCK-8 assay; assay type: functional, cell-based
[20] = Octanol-water partition coefficient, logP of the compound incubated overnight by HPLC analysis; assay type: physicochemical
HeLa [21] = assay: Induction of apoptosis in human HeLa cells assessed as viable cells at 0.4 uM measured after 24 hrs by Annexin V-FITC/7-AAD staining based flow cytometric analysis (reference value: 70.1%); assay type: functional; conditions: read-out: Activity
[22] = target: Tubulin beta (Homo sapiens) (UniProt P68371+Q9H4B7+Q13509+P04350+Q3ZCM7+P07437+Q13885+Q9BVA1+Q9BUF5+A6NNZ2); assay: Binding affinity to beta-tubulin colchicine binding site in human HeLa cells assessed as decrease of adduct formation by measuring gray value measured at 50 uM incubated for 2 hrs followed by addition of EBI measured after 1.5 hrs by EBI competition based Western blotting analysis; assay type: cell-based; conditions: time 3.5 hrs
SiHa [23] = assay: Antiproliferative activity against human SiHa cells assessed as reduction in cell growth measured after 48 to 72 hrs by CCK-8 assay; assay type: functional, cell-based
[24] = Toxicity in BABL/c mouse xenografted with human HeLa cells assessed as body weight gain at 30 mg/kg, ip administered daily for 21 days followed by addition of 3 mg/kg DDP for every 2 days and measured every 3 days; assay type: organism-based; conditions: in vivo, 504 h, time 21 day
[25] = Aqueous solubility of compound at pH 7.0 phosphate buffer incubated overnight by HPLC analysis analysis; assay type: physicochemical
HeLa [26] = assay: Induction of apoptosis in human HeLa cells assessed as viable cells at 0.2 uM measured after 24 hrs by Annexin V-FITC/7-AAD staining based flow cytometric analysis (reference value: 70.1%); assay type: functional; conditions: read-out: Activity
HeLa [27] = assay: Induction of apoptosis in human HeLa cells assessed as early apoptotic cells at 3 nM measured after 24 hrs by Annexin V-FITC/7-AAD staining based flow cytometric analysis (reference value: 18.8%); assay type: functional
HeLa [28] = assay: Induction of apoptosis in human HeLa cells assessed as early apoptotic cells at 1.5 nM measured after 24 hrs by Annexin V-FITC/7-AAD staining based flow cytometric analysis (reference value: 18.8%); assay type: functional
HeLa [29] = assay: Induction of cell cycle arrest in human HeLa cells assessed as 2N cells at 6 nM measured after 24 hrs by propidium iodide staining based flow cytometric analysis analysis ( Rvb = 41.7%); assay type: functional
HeLa [30] = assay: Inhibition of colony formation in human HeLa cells at 6 nM and treated for every 48 hrs with fresh medium measured after 14 days by crystal violet staining method; assay type: functional; set-up: scale not given: the % may be the effect or the level left; conditions: time 14 day
HeLa [31] = assay: Induction of cell cycle arrest in human HeLa cells assessed as 2N cells at 1.5 nM measured after 24 hrs by propidium iodide staining based flow cytometric analysis analysis ( Rvb = 41.7%); assay type: functional
HeLa [32] = assay: Antimigratory activity against human HeLa cells at 1.5 nM measured after 24 hrs by scratch wound healing based fluorescence inverted microscopic analysis; assay type: functional
Bos taurus = organism: Bos taurus; assay: Inhibition of calf brain tubulin polymerization upto 50 uM measured after 40 mins by spectrophotometric analysis; conditions: DDE = dose-dependent effect

Compound | IC50 [1] | solubility [2] | IC50 [6] | solubility [7] | IC50 [9] | IC50 (HeLa [11]) | IC50 at 24 h [12] | IC50 (SiHa [16]) | IC50 (HeLa [19]) | logP [20] | IC50 (SiHa [23]) | solubility [25] | also measured
CCOc1ccc(-c2cncnc2-c2cc(OC)c(OC)c(OC)c2)cc1Cl | 6280 nM | 31.7 µg/mL (≈ 79 µM) | 7210 nM | 17.1 µg/mL (≈ 42.8 µM) | 110 nM | 90 nM | 188000 nM | 150 nM | 90 nM | 2.36 | 150 nM | 8.12 µg/mL (≈ 20.3 µM) | AUC(0-inf) [3]: 5940 ng·h/mL; Activity (HeLa [4]): 47.6%; Activity (HeLa [5]): 11.4%; Activity (HeLa [8]): 7.29%; Activity (HeLa [10]): 100%; Activity [13]: 1.3%; Activity [14]: 40%; Activity (Tubulin (Homo sapiens)): Dde; Activity (HeLa [15]): 24.7%; Activity [17]: Non-Toxic; Activity (HeLa [18]): 71.7%; viability at 0.4 µM (HeLa [21]): 11.5%; Activity [22]: 1.51; Activity [24]: Non-Toxic; viability at 0.2 µM (HeLa [26]): 26.4%
COc1ccc(/C=C\c2cc(OC)c(OC)c(OC)c2)cc1O [COMBRETASTATIN A4] | 14400 nM | 3.23 µg/mL (≈ 10.2 µM) | 10300 nM | 4.34 µg/mL (≈ 13.7 µM) | 8 nM | 4.2 nM | 116000 nM | 29 nM | 4.2 nM | 2.04 | 29 nM | 9.85 µg/mL (≈ 31.1 µM) | Activity (HeLa [27]): 43.8%; Activity (HeLa [28]): 23.5%; Activity (HeLa [29]): 25.9%; Activity (HeLa [30]): 100%; Activity (HeLa [31]): 43.1%; Activity (HeLa [32]): 25%; inhibition (Bos taurus): Dde
